The source of these data is article PMC8286840, “Identifying SARS-CoV-2 antiviral compounds by screening for small molecule inhibitors of Nsp3 papain-like protease” (Biochemical Journal, 2021).

Assay [1] has as its target T1, SARS-CoV-2 PLpro (nsp3 1564–1878) (Severe acute respiratory syndrome coronavirus 2, UniProt P0DTD1). In words: biochemical. The arrangement: FRET-quenched peptide (Pro3) cleavage by PLpro, 10 min pre-incubation, slope over 20 min, normalised to no-compound control. The settings on record: read-out: % of control remaining.
Experimental: The plates were organized with columns 3–22 containing the compounds; the remaining columns were used for reaction controls including substrate only and substrate with enzyme but no compound (Figure 3Aii). The PLpro enzyme was pre-incubated with the compounds for 10 min, and then the reaction was initiated by the addition of substrate. […] We incubated the inhibitors with PLpro before the enzymatic reaction so that the slow-binding inhibitors will not be missed out [21]. […] Fluorescence was read on a Spark multimode microplate reader (Tecan) with an excitation wavelength at 330 nm and emission wavelength at 420 nm. […] An amount of 5 µl of the enzyme was pre-incubated with compounds for 10 min before the addition of 15 µl substrate. Fluorescence was monitored at 2 min for 20 min with 3 min intervals giving a total of seven readings.
Assay [2] concerns the target T1, SARS-CoV-2 PLpro (nsp3 1564–1878). In words: biochemical. The arrangement: FRET-quenched peptide (Pro3) cleavage by PLpro, 10 min pre-incubation, slope over 20 min, normalised to no-compound control. The settings on record: read-out: % of control remaining. This is another data set of the same source.

Where a name gives a salt, the structure may show the parent alone. Read-outs that look alike come from different tables or passages of the source.

`CC(C)NCC(O)c1ccc(NS(C)(=O)=O)cc1` (centres unmarked) [Sotalol (hydrochloride)]: the remaining activity at 1.25 µM in assay [1] (Well no.=6363, low concentration screen) amounted to 100%. The remaining activity at 3.75 µM in assay [2] (Well no.=6363, high concentration screen) was 98.6%.

Take `CC(C)NCC(O)c1ccc(NS(C)(=O)=O)cc1` (centres unmarked) [Sotalol.HCl]: the remaining activity at 1.25 µM in assay [1] (Well no.=1785, low concentration screen) is 103%. Further, the remaining activity at 3.75 µM in assay [2] (Well no.=1785, high concentration screen) was determined as 102%.

Turning to `CN1CCN(c2nc(C3=C(c4c[nH]c5ccccc45)C(=O)NC3=O)c3ccccc3n2)CC1` [Sotrastaurin (AEB071)], the remaining activity at 1.25 µM in assay [1] (Well no.=4747, low concentration screen) was 105%. The remaining activity at 3.75 µM in assay [2] (Well no.=4747, high concentration screen) amounted to 109%.

On to `C[C@@H]1CN(c2c(F)c(N)c3c(=O)c(C(=O)O)cn(C4CC4)c3c2F)C[C@H](C)N1` [Sparfloxacin], for which the remaining activity at 1.25 µM in assay [1] (Well no.=2251, low concentration screen) is 95.3%. For the same compound, the remaining activity at 3.75 µM in assay [2] (Well no.=2251, high concentration screen) came out at 97.4%.

Turning to `CNC1C(O)C(NC)C2OC3(O)C(=O)CC(C)OC3OC2C1O` (centres unmarked) [Spectinomycin.2HCl], the remaining activity at 1.25 µM in assay [1] (Well no.=1587, low concentration screen) is 101%. Moreover, the remaining activity at 3.75 µM in assay [2] (Well no.=1587, high concentration screen) turned out to be 101%.

Consider `CN[C@@H]1[C@H](O)[C@H](NC)[C@H]2O[C@@]3(O)C(=O)C[C@@H](C)O[C@H]3O[C@@H]2[C@H]1O` [Spectinomycin], for which the remaining activity at 1.25 µM in assay [1] (Well no.=3174, low concentration screen) came out at 103%. Further, the remaining activity at 3.75 µM in assay [2] (Well no.=3174, high concentration screen) is 110%.

Take `NCCCCNCCCN` [Spermidine trihydrochloride]: the remaining activity at 1.25 µM in assay [1] (Well no.=1168, low concentration screen) amounted to 102%. In assay [2] (Well no.=1168, high concentration screen), the remaining activity at 3.75 µM is 104%.

`NCCCCNCCCN` [Spermidine]: the remaining activity at 1.25 µM in assay [1] (Well no.=7069, low concentration screen) is 107%. In addition, the remaining activity at 3.75 µM in assay [2] (Well no.=7069, high concentration screen) stood at 105%.

As to `NCCCNCCCCNCCCN` [Spermine tetrahydrochloride], the remaining activity at 1.25 µM in assay [1] (Well no.=1312, low concentration screen) amounted to 100%. Moreover, the remaining activity at 3.75 µM in assay [2] (Well no.=1312, high concentration screen) is 101%.

For the compound `CCCCCCCCCCCCC/C=C/[C@@H](O)[C@@H](N)CO` [Sphingosine], in assay [1] (Well no.=4361, low concentration screen), the remaining activity at 1.25 µM came to 101%. Besides, the remaining activity at 3.75 µM stood at 104% in assay [2] (Well no.=1172, high concentration screen) and 93.6% in assay [2] (Well no.=4361, high concentration screen).

As for `O=C(CCCN1CCC2(CC1)C(=O)NCN2c1ccccc1)c1ccc(F)cc1` [Spiperone hydrochloride], the remaining activity at 1.25 µM in assay [1] (Well no.=1268, low concentration screen) came out at 105%. Moreover, the remaining activity at 3.75 µM in assay [2] (Well no.=1268, high concentration screen) was 105%.

On to `CC(=O)S[C@@H]1CC2=CC(=O)CC[C@]2(C)[C@H]2CC[C@@]3(C)[C@@H](CC[C@@]34CCC(=O)O4)[C@H]12` [Spironolactone], for which the remaining activity at 1.25 µM in assay [1] (Well no.=1266, low concentration screen) is 97.8%; in assay [1] (Well no.=2253, low concentration screen), 93%. Further, the remaining activity at 3.75 µM in assay [2] (Well no.=1266, high concentration screen) was found to be 93.5%; in assay [2] (Well no.=2253, high concentration screen), 82.7%.

`O=C1NCN(c2ccccc2)C12CCN(CC1COc3ccccc3O1)CC2` (centres unmarked) [Spiroxatrine]: in assay [1] (Well no.=1277, low concentration screen), the remaining activity at 1.25 µM was 99.7%. Further, in assay [2] (Well no.=1277, high concentration screen), the remaining activity at 3.75 µM turned out to be 102%.

For `O=C1CCc2c(ccc3ccccc23)O1` [Splitomicin], the remaining activity at 1.25 µM in assay [1] (Well no.=5525, low concentration screen) stood at 105%. Also, the remaining activity at 3.75 µM in assay [2] (Well no.=5525, high concentration screen) stood at 120%.

As to `CC(C)=CCC/C(C)=C/CC/C(C)=C/CC/C=C(\C)CC/C=C(\C)CCC=C(C)C` [Squalene], in assay [1] (Well no.=7255, low concentration screen), the remaining activity at 1.25 µM was 98.6%. Besides, in assay [2] (Well no.=7255, high concentration screen), the remaining activity at 3.75 µM came to 96.6%.

`COc1cc2ncnc(Nc3ccc(Oc4ccccc4)cc3)c2cc1OC` [Src Kinase Inhibitor I]: the remaining activity at 1.25 µM in assay [1] (Well no.=2563, low concentration screen) is 99.2%. The remaining activity at 3.75 µM in assay [2] (Well no.=2563, high concentration screen) came out at 99.3%.

For the compound `C[N+]1(C)CCC[C@H]1C(=O)[O-]` [Stachydrine hydrochloride], the remaining activity at 1.25 µM in assay [1] (Well no.=8032, low concentration screen) turned out to be 98.3%. Also, in assay [2] (Well no.=8032, high concentration screen), the remaining activity at 3.75 µM amounted to 96.9%.

`C[N+]1(C)CCC[C@H]1C(=O)[O-]` [Stachydrine]: the remaining activity at 1.25 µM in assay [1] (Well no.=6917, low concentration screen) worked out at 109%; in assay [1] (Well no.=7414, low concentration screen) it was 104%. Moreover, the remaining activity at 3.75 µM in assay [2] (Well no.=6917, high concentration screen) is 93.7%; in assay [2] (Well no.=7414, high concentration screen) it was 102%.

With `C[C@]12Cc3c[nH]nc3C[C@@H]1CC[C@@H]1[C@@H]2CC[C@@]2(C)[C@H]1CC[C@]2(C)O` [Stanozolol], in assay [1], the remaining activity at 1.25 µM stood at 94%. The remaining activity at 3.75 µM in assay [2] worked out at 95.3%.

`O=[N+]([O-])c1ccc2c(c1)S(=O)(=O)C=C2` [Stattic]: the remaining activity at 1.25 µM in assay [1] (Well no.=4748, low concentration screen) came out at 104%. The remaining activity at 3.75 µM in assay [2] (Well no.=4748, high concentration screen) was 104%.

With `CN[C@@H]1C[C@H]2O[C@@](C)([C@@H]1OC)n1c3ccccc3c3c4c(c5c6ccccc6n2c5c31)C(=O)NC4` [Staurosporine, Streptomyces sp.], the remaining activity at 1.25 µM in assay [1] (Well no.=2656, low concentration screen) is 94.8%; in assay [1] (Well no.=2661, low concentration screen), 89.3%. The remaining activity at 3.75 µM came out at 95% in assay [2] (Well no.=2656, high concentration screen) and 84.8% in assay [2] (Well no.=2661, high concentration screen).

Regarding `Cc1cn([C@H]2C=C[C@@H](CO)O2)c(=O)[nH]c1=O` [Stavudine], the remaining activity at 1.25 µM in assay [1] (Well no.=7916, low concentration screen) was found to be 99.6%. Besides, the remaining activity at 3.75 µM in assay [2] (Well no.=7916, high concentration screen) amounted to 96.8%.

As to `COc1cc2ncnc(Nc3ccc(Cl)cc3Cl)c2cc1OC` [Ste11 MAPKKK Activation Inhibitor], the remaining activity at 1.25 µM in assay [1] (Well no.=2673, low concentration screen) is 96.8%. Also, in assay [2] (Well no.=2673, high concentration screen), the remaining activity at 3.75 µM was found to be 99.8%.

For `CCCCCCCCCCCCCCCCCC(=O)O` [Stearic acid], the remaining activity at 1.25 µM in assay [1] (Well no.=6963, low concentration screen) was determined as 98.8%. For the same compound, the remaining activity at 3.75 µM in assay [2] (Well no.=6963, high concentration screen) came out at 102%.

On to `CC(C)n1cnc2c(NCCc3ccc(O)cc3)nc(-c3csc4ccccc34)nc21` [StemRegenin 1], for which the remaining activity at 1.25 µM in assay [1] (Well no.=4827, low concentration screen) was found to be 101%. Besides, the remaining activity at 3.75 µM in assay [2] (Well no.=4827, high concentration screen) is 98.2%.

On to `CN[C@@H]1[C@H](O[C@H]2[C@H](O[C@H]3[C@H](O)[C@@H](O)[C@H](N=C(N)N)[C@@H](O)[C@@H]3N=C(N)N)O[C@@H](C)[C@]2(O)C=O)O[C@@H](CO)[C@H](O)[C@H]1O` [Streptomycin], for which the remaining activity at 1.25 µM in assay [1] (Well no.=2285, low concentration screen) came out at 97.7%. Further, the remaining activity at 3.75 µM in assay [2] (Well no.=2285, high concentration screen) amounted to 97.7%.

Take `COC1=C(N)C(=O)c2nc(-c3nc(C(=O)O)c(C)c(-c4ccc(OC)c(OC)c4O)c3N)ccc2C1=O` [Streptonigrin]: the remaining activity at 1.25 µM in assay [1] (Well no.=3304, low concentration screen) was found to be 96.9%. Further, in assay [2] (Well no.=3304, high concentration screen), the remaining activity at 3.75 µM amounted to 96.9%.

Turning to `CN(N=O)C(=O)N[C@@H](C=O)[C@@H](O)[C@H](O)[C@H](O)CO` [Streptozocin], the remaining activity at 1.25 µM in assay [1] (Well no.=3317, low concentration screen) was determined as 100%. The remaining activity at 3.75 µM in assay [2] (Well no.=3317, high concentration screen) came to 103%.

Turning to `O=C(O)CCC(=O)O` [Succinic acid], the remaining activity at 1.25 µM in assay [1] (Well no.=7353, low concentration screen) is 106%. For the same compound, in assay [2] (Well no.=7353, high concentration screen), the remaining activity at 3.75 µM was found to be 106%.

Take `C[N+](C)(C)CCOC(=O)CCC(=O)OCC[N+](C)(C)C` [Succinylcholine chloride]: the remaining activity at 1.25 µM in assay [1] (Well no.=1318, low concentration screen) came out at 103%; in assay [1] (Well no.=6064, low concentration screen), 99%. Besides, the remaining activity at 3.75 µM in assay [2] (Well no.=1318, high concentration screen) was 103%; in assay [2] (Well no.=6064, high concentration screen), 96.6%.

Consider `C[N+](C)(C)CCOC(=O)CCC(=O)OCC[N+](C)(C)C` [Succinylcholine], for which the remaining activity at 1.25 µM in assay [1] (Well no.=2294, low concentration screen) worked out at 90.2%. The remaining activity at 3.75 µM in assay [2] (Well no.=2294, high concentration screen) amounted to 95.9%.
